Measurements: patent US20240285497A1, “METHOD FOR EVALUATING AN ABILITY OF A TEST SAMPLE TO TRIGGER A FOREIGN BODY REACTION IN THE SKIN, A METHOD FOR SCREENING A SUBSTANCE HAVING AN ABILITY TO INHIBIT A FOREIGN BODY REACTION IN THE SKIN, AND AN AGENT FOR INHIBITING A FOREIGN BODY REACTION IN THE SKIN” (priority 2021, published 2024)
Marks after values point to notes of the source that are not given here.

How the values were obtained:
[1] = system: matrix metalloprotease 2 (MMP2) mRNA; experiment: MMP2 mRNA expression in HaCaT cells contacted with test substance, quantitative PCR; assay type: cell-based, human; conditions: 1 μM, 10 μM and 100 μM, HaCaT cells, 24 hours
Experimental: In this experiment, the effect of Fraglide-1 on the expression of MMP9 in the level of mRNA was examined first. Specifically, HaCaT cells were treated with Fraglide-1 in the same manner as described in Experiment 3-1 except that HaCaT cells were incubated for 24 hours in the medium containing 0 μM, 1 μM, 10 μM, and 100 μM of Fraglide-1 instead of being incubated for 24 hours in the medium containing both FICZ and Fraglide-1. The total RNA was then extracted, cDNA was prepared, and the quantitative PCR was performed using the obtained cDNA. Herein, the procedure of the quantitative PCR was the same as described in Experiment 3-1 except that the primers shown in below Table 4 were used. In this experiment, the expression of MMP2 mRNA was also quantified in addition to MMP9 mRNA. MMP2 is known as a MMP which is not transcriptionally regulated by a xenobiotic responsive element (XRE). […]
Next, experiments were performed to inhibit MMP9 and MMP2 in HaCaT cells using retinoic acid (CAS RN: 302-79-4) and nicotinamide (CAS RN: 98-92-0), which are known to be substances having anti-wrinkle effect. […] Then, the total RNA was extracted, cDNA was prepared, and the quantitative PCR was carried out using the obtained cDNA. […]

[2] = system: matrix metalloprotease 9 (MMP9) mRNA; experiment: MMP9 mRNA expression in HaCaT cells contacted with test substance, quantitative PCR; assay type: cell-based, human; conditions: HaCaT cells, 24 hours
Experimental: In this experiment, the effect of Fraglide-1 on the expression of MMP9 in the level of mRNA was examined first. Specifically, HaCaT cells were treated with Fraglide-1 in the same manner as described in Experiment 3-1 except that HaCaT cells were incubated for 24 hours in the medium containing 0 μM, 1 μM, 10 μM, and 100 μM of Fraglide-1 instead of being incubated for 24 hours in the medium containing both FICZ and Fraglide-1. The total RNA was then extracted, cDNA was prepared, and the quantitative PCR was performed using the obtained cDNA. Herein, the procedure of the quantitative PCR was the same as described in Experiment 3-1 except that the primers shown in below Table 4 were used. In this experiment, the expression of MMP2 mRNA was also quantified in addition to MMP9 mRNA. MMP2 is known as a MMP which is not transcriptionally regulated by a xenobiotic responsive element (XRE).
In FIG. 9 and FIG. 10, the results obtained for each sample were shown as a relative value, with the mRNA expression level of MMP9 or MMP2 in the HaCaT cells incubated for 24 hours in DMEM medium without […] (i.e., the non-treated HaCaT cells) set to 1. The results shown in FIG. 9 and FIG. 10 were the mean obtained from three independent experiments. The error bars represent the standard deviation (SD).
Next, experiments were performed to inhibit MMP9 and MMP2 in HaCaT cells using retinoic acid (CAS RN: 302-79-4) and nicotinamide (CAS RN: 98-92-0), which are known to be substances having anti-wrinkle effect. Briefly, HaCaT cells were made in contact with retinoic acid and nicotinamide in the same manner as in Experiment 4-1 except that retinoic acid and nicotinamide were used instead of Fraglide-1. Then, the total RNA was extracted, cDNA was prepared, and the quantitative PCR was carried out using the obtained cDNA.
In FIG. 12 and FIG. 13, the results obtained for each sample were shown as a relative value, with the mRNA expression level of MMP9 or MMP2 in the HaCaT cells incubated for 24 hours in DMEM medium containing neither retinoic acid nor nicotinamide (i.e., the non-treated HaCaT cells) set to 1. The results shown in FIG. 12 and FIG. 13 were the mean obtained from three independent experiments. The error bars represent the standard deviation (SD).

[3] = system: human liver cancer-derived cell line HepG2 cells; conditions: cited from earlier work
[4] = system: artemin mRNA; experiment: Artemin mRNA expression in HaCaT cells contacted with FICZ, quantitative PCR; assay type: cell-based, human; conditions: 24 hours; for expression level of artemin mRNA compared to cells without FICZ: no Fraglide-1
Experimental: First, HaCaT cells (CLI; Catalogue No.: 300493) were suspended in a DMEM medium at the density of 1×10^5 cell/mL, and 100 μL of the thus obtained suspension was added to each well of white 96 well plates (Thermo Fisher Scientific, MA, U.S.A.; Catalogue No.: 136102) so that the number of the cells in each well was 10,000 cells/well. In accordance with a conventional method, the cells were incubated at 37° C. for 24 hours in the presence of 5% CO2. Thereafter, the DMEM medium was removed, and 100 μL of a new DMEM medium containing FICZ at a predetermined concentration (i.e., 5 nM, 50 nM, 500 nM, and 5,000 nM) was added, followed by further incubation for 24 hours at 37° C. and 5% CO2. Meanwhile, negative controls were prepared by adding 100 μL of a DMEM medium containing no FICZ instead of the DMEM medium containing FICZ, which were also incubated for 24 hours at 37° C. and 5% CO2.
After the above-described incubation for 24 hours, total RNA was extracted and cDNA was prepared using a PCR kit “SuperPrep II Cell Lysis & RT Kit for qPCR” (Catalogue No.: SCQ-401) manufactured by Toyobo Co., Ltd. (Osaka, Japan) in accordance with a method described in the manual attached to the kit. Briefly, after the above-described incubation for 24 hours, cell culture medium was removed from each well and the cells were washed with PBS (Phosphate-buffered saline). Thereafter, each well was added with 10 μL of a lysis reagent, which was prepared by mixing 58.7 μL of “Lysis solution”, 0.3 μL of “gDNA Remover” and 1 μL of “RNase Inhibitor” attached to the above PCR kit. The cell culture plate was shaken for about 30 seconds, and allowed to stand at room temperature for 5 minutes, to obtain a cell lysate containing total RNA that can be used as a template for reverse transcription reaction. Herein, “Lysis Solution” was a cell lysis agent to lyse cells; “gDNA remover” was a reagent containing DNase I that degrades genome DNA; and “RNase Inhibitor” was a reagent to inhibit degradation of RNA by cellular components such as RNase, etc.
Next, cDNA was synthesized from the extracted RNA by reverse transcription. Firstly, a master mix for reverse transcription reaction was prepared by mixing 8 μL of “5×RT Master Mix” and 24 μL of “Nuclease-free water”, which were attached to the above PCR kit “SuperPrep II Cell Lysis & RT Kit for qPCR” manufactured by Toyobo Co., Ltd. (Osaka, Japan). Preparation of the master mix for reverse transcription reaction was carried out on ice. In a PCR tube, 32 μL of the obtained master mix was dispensed and then 8 μL of the above cell lysate present in each well was added to make a total volume 40 μL, which was used for the following reverse transcription reaction. The reverse transcription reaction was carried out under the conditions of 37° C. for 15 mins, 50° C. for 5 mins, and 98° C. for 5 mins. The thus obtained cDNA solution was added with 80 μL of sterile water and then frozen at −20° C. for storage.
Quantitative PCR was carried out by using THUNDERBIRD Next SYBR qPCR Mix (Toyobo Co., Ltd., Osaka, Japan; Catalogue No. QPX-201) and StepOne Real-Time PCR System (Thermo Fisher Scientific, MA, USA). […] The reaction solution was used for quantitative PCR. Based on Ct (cycle threshold) value obtained by quantitative PCR, an amount of mRNA of each target gene was obtained. […]

| Molecule | MMP2 mRNA expression [1] | decrease of expression level of MMP9 mRNA compared to medium without Fraglide-1 ([2]; 1 μM) | decrease of expression level of MMP9 mRNA compared to medium without Fraglide-1 ([2]; 10 μM) | decrease of expression level of MMP9 mRNA compared to medium without Fraglide-1 ([2]; 100 μM) | Literature Value Maximum Effective concentration Max. Induction [3] | expression level of artemin mRNA compared to cells without FICZ ([4]; HaCaT cells, 500 nM FICZ) | expression level of artemin mRNA compared to cells without FICZ ([4]; HaCaT cells, 5,000 nM FICZ) | concentration necessary to observe a significant increase in the expression level of artemin mRNA ([4]; HaCaT cells) | change in expression level of artemin mRNA ([4]; HaCaT cells, FICZ 50 nM or lower) | expression level of artemin mRNA, dependence on concentration ([4]; HaCaT cells, FICZ 5-5,000 nM) |
| --- | --- | --- | --- | --- | --- | --- | --- | --- | --- | --- |
| O=C1C=C(c2ccccc2)C(O)O1 (stereo not shown) [Fraglide-1, 5-hydroxy-4-phenyl-2(5H)butenolide] | no decrease in the mRNA expression was observed | approximately 42% | ~52% | ~80% |  |  |  |  |  |  |
| 6-formylindolo[3,2-b] carbazole [FICZ] |  |  |  |  | 1** μM | about 3.0 fold | ~3.7 fold | at least 500 nM | no change was observed | increased along with the concentration of FICZ |
